Experiments:
[1] = Cell viability (cytotoxicity) MTT assay in non-tumorigenic MCF-10A cells; type: cell-based, human; conditions: human, MCF-10A mammary epithelial cells
[2] = tested on: A-549 human lung carcinoma cell line; assay: Antiproliferative assay, A-549; conditions: Homo sapiens, A549, read-out: Antiproliferative Activity IC50 ± SEM, A-549
Experimental: (§1) For a rigorous assessment, the widely accepted MTT assay [63, 64] was employed. Using Doxorubicin, a well-established drug, as the reference standard ensures a benchmark for the synthesized compounds, allowing a contextual understanding of their efficacy.
(§2) The MTT assay [63, 64] was employed for this assessment, with Doxorubicin as the reference drug.
(§3) 24h followed by the addition of synthesized compounds (in 200 μL medium to yield a final concentration of 0.1% (v/v) dimethyl sulfoxide) into individual wells of the plates. Four wells were designated to a single compound. The plates were allowed to incubate at 37°C for 96 h. After wards, the medium was aspirated and 3-[4,5-dimethylthiazol-2-yl]-2,5-diphenyltetrazolium bromide (MTT) (0.4 mg/mL) in medium was added to each well and subsequently incubated for 3 h. The medium was aspirated and 150 μL dimethyl sulfoxide (DMSO) was added to each well.
(§4) The plates were vortexed followed by the measurement of absorbance at 540 nm on a microplate

[3] = tested on: MCF-7 human breast adenocarcinoma cell line; assay: Antiproliferative assay, MCF-7; conditions: Homo sapiens, MCF7, read-out: Antiproliferative Activity IC50 ± SEM, MCF-7
Experimental: as §1, §2, §3, §4

[4] = tested on: HT-29 human colon cancer cell line; assay: Antiproliferative assay, HT-29; conditions: Homo sapiens, HT-29, read-out: Antiproliferative Activity IC50 ± SEM, HT-29
Experimental: as §1, §2, §3, §4

[5] = tested on: Panc-1 human pancreatic cancer cell line; assay: Antiproliferative assay, Panc-1; conditions: Homo sapiens, PANC-1, read-out: Antiproliferative Activity IC50 ± SEM, Panc-1
Experimental: as §1, §2, §3, §4

[6] = tested on: four cancer cell lines (A-549, MCF-7, Panc-1, HT-29); assay: Antiproliferative assay, average over four cancer cell lines (GI50); conditions: Homo sapiens, read-out: Average IC50 (GI50)
Experimental: as §1, §2, §3, §4

BRAF^V600E = target: T1, BRAF^V600E (Mus musculus, UniProt P28028, V585E); assay: BRAF V600E kinase inhibitory assay; type: biochemical; conditions: for IC50: BRAF V600E, mean ± SEM, read-out: BRAF Inhibition IC50 ± SEM
T1 construct: Mouse full-length GST-tagged; purchased Invitrogen PV3849
T1 sequence (P28028 whole entry V585E): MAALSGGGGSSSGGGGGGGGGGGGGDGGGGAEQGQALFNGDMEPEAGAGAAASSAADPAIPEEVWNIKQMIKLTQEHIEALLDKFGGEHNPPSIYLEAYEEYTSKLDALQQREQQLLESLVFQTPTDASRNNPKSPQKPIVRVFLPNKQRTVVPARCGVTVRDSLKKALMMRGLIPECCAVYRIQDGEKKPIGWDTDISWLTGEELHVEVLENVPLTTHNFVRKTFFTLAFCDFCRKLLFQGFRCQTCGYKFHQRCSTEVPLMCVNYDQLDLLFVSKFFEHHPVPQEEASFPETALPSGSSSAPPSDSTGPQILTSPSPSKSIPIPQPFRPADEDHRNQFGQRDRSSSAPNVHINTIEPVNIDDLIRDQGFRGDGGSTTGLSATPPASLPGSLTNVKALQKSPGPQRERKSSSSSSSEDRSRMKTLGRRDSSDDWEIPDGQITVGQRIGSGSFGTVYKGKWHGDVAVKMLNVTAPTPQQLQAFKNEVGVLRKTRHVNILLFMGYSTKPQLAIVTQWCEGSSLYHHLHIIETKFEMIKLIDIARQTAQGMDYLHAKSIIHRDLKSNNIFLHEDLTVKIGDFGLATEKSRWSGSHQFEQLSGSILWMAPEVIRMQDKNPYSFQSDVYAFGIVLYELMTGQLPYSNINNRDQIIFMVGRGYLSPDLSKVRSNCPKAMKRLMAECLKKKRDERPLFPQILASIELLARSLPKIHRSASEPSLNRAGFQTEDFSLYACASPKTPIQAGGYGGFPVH
Excerpt: Mouse full-length GST-tagged
developed using a phosphor screen.

EGFR = EGFR (Homo sapiens, UniProt P00533); assay: EGFR-TK inhibitory assay
Sequence of EGFR (P00533 669-1210): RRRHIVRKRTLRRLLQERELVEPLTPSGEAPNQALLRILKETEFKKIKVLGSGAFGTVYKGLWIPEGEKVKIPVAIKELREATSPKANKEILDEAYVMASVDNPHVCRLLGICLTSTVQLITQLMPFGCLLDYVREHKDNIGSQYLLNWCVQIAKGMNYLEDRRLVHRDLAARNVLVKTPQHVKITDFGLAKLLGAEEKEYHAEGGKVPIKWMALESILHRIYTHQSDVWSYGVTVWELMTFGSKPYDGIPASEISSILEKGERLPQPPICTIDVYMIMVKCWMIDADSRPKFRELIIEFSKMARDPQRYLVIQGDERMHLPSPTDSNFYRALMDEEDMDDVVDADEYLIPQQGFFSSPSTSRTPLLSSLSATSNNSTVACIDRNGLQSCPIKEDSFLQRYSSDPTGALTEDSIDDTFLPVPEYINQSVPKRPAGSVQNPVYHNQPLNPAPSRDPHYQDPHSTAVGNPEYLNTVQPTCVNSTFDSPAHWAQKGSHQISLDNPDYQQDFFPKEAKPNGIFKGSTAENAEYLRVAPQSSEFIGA
Experimental: Baculoviral expression vectors including pBlueBacHis2B and pFASTBacHTc were used
5ʹ upstream to the EGFR sequence comprised a sequence that encoded (His)6.
Sf-9cells were infected for 72h for protein expression. The pellets of Sf-9 cells were solubilized in
a buffer containing sodium vanadate (100 μM), aprotinin (10 μg/mL), triton (1%), HEPES buffer(50mM), ammonium molybdate (10 μM), benzamidine HCl (16 μg/mL), NaCl (10mM), leupeptin (10 μg/mL) and pepstatin (10 μg/mL) at 0°C for 20 min at pH 7.4, followed by centrifugation for 20 min. To eliminate the nonspecifically bound material, a Ni-NTA super flow packed column was used to pass through and wash the crude extract supernatant first with
10mMand then with 100 mM imidazole. Histidine-linked proteins were first eluted with 250 and
then with 500 mM imidazole subsequent to dialysis against NaCl (50 mM), HEPES (20 mM),
glycerol (10%) and 1 μg/mL each of aprotinin, leupeptin and pepstatin for 120 min. The
purification was performed either at 4 °C or on ice. To record autophosphorylation level, EGFR
kinase assay was carried out based on DELFIA/Time-Resolved Fluorometry. The compounds
were first dissolved in DMSO absolute, subsequent to dilution t o appropriate concentration using
HEPES(25 mM) at pH 7.4. Each compound (10 μL) was incubated with recombinant enzyme (10
μL, 5ng for EGFR, 1:80 dilution in 100 mM HEPES) for 10 min at 25 °C, subsequent to the addition of5X buffer (10 μL, containing 2 mM MnCl2, 100 μM Na3VO4, 20 mM HEPES and 1
mM DTT)and ATP-MgCl2 (20 μL, containing 0.1 mM ATP and 50 mM MgCl2) and incubation
for 1h. The negative and positive controls were included in each plate by the incubation of enzyme
either with or without ATP-MgCl2. The liquid was removed after incubation and the plates were
washed thrice using a wash buffer. Europium-tagged anti phosphotyrosine antibody (75 μL, 400
ng) was added to each well followed by incubation of 1h and then washing of the plates using buffer. The enhancement solution was added to each well and the signal was recorded at excitation
The autophosphorylation percentage inhibition by compounds was calculated using the following equation: Using the curves of percentage inhibition

Structure (SMILES)	viability at 4 days, 50 µM [1] [%]	IC50 [2] [µM]	IC50 [3] [µM]	IC50 [4] [µM]	IC50 [5] [µM]	IC50 [6] [µM]	IC50 (BRAF^V600E) [nM]	IC50 (EGFR) [nM]	fold less potent than Erlotinib, BRAF^V600E (BRAF^V600E; ratio of IC50 to Erlotinib) [fold]	fold less potent than Erlotinib, EGFR (EGFR; ratio of IC50 to Erlotinib) [fold]
CCn1c(SCC(=O)Nc2ccc(-c3cc(-c4ccccc4)c(C#N)c(=O)[nH]3)cc2)nc2ccccc2c1=O [Compound 7, N-(4-(5-Cyano-6-oxo-4-phenyl-1,6-dihydropyridin-2-yl)phenyl)-2-((3-ethyl-4-oxo-3,4-dihydroquinazolin-2-yl)thio)acetamide]	90	9.2 ± 0.8	9.1 ± 0.8	9.8 ± 0.9	9.3 ± 0.8	9.3	–	–	–	–
CCn1c(SCC(=O)Nc2ccc(-c3cc(-c4ccc(OC)cc4)c(C#N)c(=O)[nH]3)cc2)nc2ccccc2c1=O [Compound 8, N-(4-(5-Cyano-4-(4-methoxyphenyl)-6-oxo-1,6-dihydropyridin-2-yl)phenyl)-2-((3-ethyl-4-oxo-3,4-dihydroquinazolin-2-yl)thio)acetamide]	89	1.5 ± 0.1	1.4 ± 0.1	1.7 ± 0.1	1.7 ± 0.1	1.6	220 ± 15	160 ± 12	–	–
CCn1c(SCC(=O)Nc2ccc(-c3cc(-c4ccc(Cl)cc4)c(C#N)c(=O)[nH]3)cc2)nc2ccccc2c1=O [Compound 9, N-(4-(4-(4-Chlorophenyl)-5-cyano-6-oxo-1,6-dihydropyridin-2-yl)phenyl)-2-((3-ethyl-4-oxo-3,4-dihydroquinazolin-2-yl)thio)acetamide]	96	1.8 ± 0.1	1.6 ± 0.1	2 ± 0.1	2 ± 0.1	1.8	290 ± 20	190 ± 15	–	–
CCn1c(SCC(=O)Nc2ccc(-c3cc(-c4ccc(Br)cc4)c(C#N)c(=O)[nH]3)cc2)nc2ccccc2c1=O [Compound 10, N-(4-(4-(4-Bromophenyl)-5-cyano-6-oxo-1,6-dihydropyridin-2-yl)phenyl)-2-((3-ethyl-4-oxo-3,4-dihydroquinazolin-2-yl)thio)acetamide]	88	2.4 ± 0.2	2.2 ± 0.45	2.7 ± 0.2	2.6 ± 0.2	2.5	–	–	–	–
CCn1c(SCC(=O)Nc2ccc(-c3cc(-c4ccc(F)cc4)c(C#N)c(=O)[nH]3)cc2)nc2ccccc2c1=O [Compound 11, N-(4-(5-Cyano-4-(4-fluorophenyl)-6-oxo-1,6-dihydropyridin-2-yl)phenyl)-2-((3-ethyl-4-oxo-3,4-dihydroquinazolin-2-yl)thio)acetamide]	91	3.7 ± 0.3	3.6 ± 0.3	4 ± 0.3	3.8 ± 0.3	3.8	–	–	–	–
N#Cc1c(-c2ccccc2)cc(-c2ccc(NC(=O)CSc3nc4ccccc4c(=O)n3-c3ccccc3)cc2)[nH]c1=O [Compound 12, N-(4-(5-Cyano-6-oxo-4-phenyl-1,6-dihydropyridin-2-yl)phenyl)-2-((4-oxo-3-phenyl-3,4-dihydroquinazolin-2-yl)thio)acetamide]	86	7.5 ± 0.6	7.2 ± 0.7	7.7 ± 0.7	7.8 ± 0.7	7.5	–	–	–	–
COc1ccc(-c2cc(-c3ccc(NC(=O)CSc4nc5ccccc5c(=O)n4-c4ccccc4)cc3)[nH]c(=O)c2C#N)cc1 [Compound 13, N-(4-(5-Cyano-4-(4-methoxyphenyl)-6-oxo-1,6-dihydropyridin-2-yl)phenyl)-2-((4-oxo-3-phenyl-3,4-dihydroquinazolin-2-yl)thio)acetamide]	87	3.2 ± 0.3	3.1 ± 0.3	3.5 ± 0.3	3.4 ± 0.3	3.3	–	–	–	–
N#Cc1c(-c2ccc(Cl)cc2)cc(-c2ccc(NC(=O)CSc3nc4ccccc4c(=O)n3-c3ccccc3)cc2)[nH]c1=O [Compound 14, N-(4-(4-(4-Chlorophenyl)-5-cyano-6-oxo-1,6-dihydropyridin-2-yl)phenyl)-2-((4-oxo-3-phenyl-3,4-dihydroquinazolin-2-yl)thio)acetamide]	89	4.1 ± 0.4	3.9 ± 0.4	4.2 ± 0.4	4.2 ± 0.4	4.1	–	–	–	–
N#Cc1c(-c2ccc(Br)cc2)cc(-c2ccc(NC(=O)CSc3nc4ccccc4c(=O)n3-c3ccccc3)cc2)[nH]c1=O [Compound 15, N-(4-(4-(4-Bromophenyl)-5-cyano-6-oxo-1,6-dihydropyridin-2-yl)phenyl)-2-((4-oxo-3-phenyl-3,4-dihydroquinazolin-2-yl)thio)acetamide]	87	4.7 ± 0.4	4.6 ± 0.4	4.9 ± 0.4	5 ± 0.4	4.8	–	–	–	–
N#Cc1c(-c2ccc(F)cc2)cc(-c2ccc(NC(=O)CSc3nc4ccccc4c(=O)n3-c3ccccc3)cc2)[nH]c1=O [Compound 16, N-(4-(5-Cyano-4-(4-fluorophenyl)-6-oxo-1,6-dihydropyridin-2-yl)phenyl)-2-((4-oxo-3-phenyl-3,4-dihydroquinazolin-2-yl)thio)acetamide]	89	4.8 ± 0.5	4.7 ± 0.4	5.1 ± 0.5	5.1 ± 0.5	4.9	–	–	–	–
C=CCn1c(SCC(=O)Nc2ccc(-c3cc(-c4ccccc4)c(C#N)c(=O)[nH]3)cc2)nc2ccccc2c1=O [Compound 17, 2-((3-Allyl-4-oxo-3,4-dihydroquinazolin-2-yl)thio)-N-(4-(5-cyano-6-oxo-4-phenyl-1,6-dihydropyridin-2-yl)phenyl)acetamide]	89	8.4 ± 0.7	8.1 ± 0.7	9 ± 0.7	8.9 ± 0.7	8.6	–	–	–	–
C=CCn1c(SCC(=O)Nc2ccc(-c3cc(-c4ccc(OC)cc4)c(C#N)c(=O)[nH]3)cc2)nc2ccccc2c1=O [Compound 18, 2-((3-Allyl-4-oxo-3,4-dihydroquinazolin-2-yl)thio)-N-(4-(5-cyano-4-(4-methoxyphenyl)-6-oxo-1,6-dihydropyridin-2-yl)phenyl)acetamide]	90	1.1 ± 0.1	1 ± 0.1	1.3 ± 0.1	1.3 ± 0.1	1.2	140 ± 10	110 ± 10	2	1.4
C=CCn1c(SCC(=O)Nc2ccc(-c3cc(-c4ccc(F)cc4)c(C#N)c(=O)[nH]3)cc2)nc2ccccc2c1=O [Compound 21, 2-((3-Allyl-4-oxo-3,4-dihydroquinazolin-2-yl)thio)-N-(4-(5-cyano-4-(4-fluorophenyl) -6-oxo-1,6-dihydropyridin-2-yl)phenyl)acetamide]	87	2.1 ± 0.2	1.9 ± 0.1	2.2 ± 0.1	2.2 ± 0.2	2.1	–	–	–	–
COc1cccc2c1C(=O)c1c(O)c3c(c(O)c1C2=O)C[C@@](O)(C(=O)CO)C[C@@H]3O[C@H]1C[C@H](N)[C@H](O)[C@H](C)O1 [Doxorubicin, reference compound]	–	1.2 ± 0.1	0.9 ± 0.1	1 ± 0.1	1.4 ± 0.1	1.1	–	–	–	–
